Data taken from the supplement of paper PMC10307832.

How the values were obtained:
Experiment in all cases: relative viability (nuclei count vs DMSO), 5 days (fraction); higher = more cells survive
[1] = compound: C1=CC=C2C(=C1)C=CC(=C2SSC3=C(C=CC4=CC=CC=C43)O)O [IPA-3] + Nc1nc2[nH]cc(CCc3ccc(C(=O)N[C@@H](CCC(=O)O)C(=O)O)cc3)c2c(=O)[nH]1 [Pemetrexed] (partner 0.2 µM)
Method in brief: (§1)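 Cells from lung cancer lines were seeded into 1536-well plates and, one day later, dosed by pin tool. Treatments were either a single drug or a fixed dose of an anchor drug with five library-drug doses (not always all listed) in √10 steps. After 5 days, nuclei were stained in a one-step fixation (final 0.05% Triton X-100, 1% formaldehyde, 1 ug/ml Hoechst) and counted on 4× images, and relative viability is the treated-to-vehicle nuclei ratio, as the median of duplicate plates.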

[2] = compound: Cc1ccc(-n2nc(C(C)(C)C)cc2NC(=O)Nc2ccc(OCCN3CCOCC3)c3ccccc23)cc1 [Doramapimod] + CC(C)C[C@H](NC(=O)[C@H](Cc1ccccc1)NC(=O)c1cnccn1)B(O)O [Bortezomib] (partner 0.002 µM)
Method in brief: as §1

[3] = compound: Cc1ccc(-n2nc(C(C)(C)C)cc2NC(=O)Nc2ccc(OCCN3CCOCC3)c3ccccc23)cc1 [Doramapimod] + CCNC(=O)c1noc(-c2cc(C(C)C)c(O)cc2O)c1-c1ccc(CN2CCOCC2)cc1 [Luminespib] (partner 0.01 µM)
Method in brief: as §1

[4] = compound: Cn1c(Nc2ccc(C(F)(F)F)cc2)nc2cc(Oc3ccnc(-c4ncc(C(F)(F)F)[nH]4)c3)ccc21 [RAF265] + CCNC(=O)c1noc(-c2cc(C(C)C)c(O)cc2O)c1-c1ccc(CN2CCOCC2)cc1 [Luminespib] (partner 0.01 µM)
Method in brief: as §1

Cell Line	relative viability ([1]; first compound 0.2 µM)	relative viability ([1]; first compound 0.6325 µM)	relative viability ([1]; first compound 2 µM)	relative viability ([1]; first compound 6.325 µM)	relative viability ([1]; first compound 20 µM)	relative viability ([2]; first compound 0.02 µM)	relative viability ([2]; first compound 0.06325 µM)	relative viability ([2]; first compound 0.2 µM)	relative viability ([2]; first compound 0.6325 µM)	relative viability ([2]; first compound 2 µM)	relative viability ([3]; first compound 0.02 µM)	relative viability ([3]; first compound 0.06325 µM)	relative viability ([3]; first compound 0.2 µM)	relative viability ([3]; first compound 0.6325 µM)	relative viability ([3]; first compound 2 µM)	relative viability ([4]; first compound 0.01 µM)	relative viability ([4]; first compound 0.03162 µM)	relative viability ([4]; first compound 0.1 µM)	relative viability ([4]; first compound 0.3162 µM)	relative viability ([4]; first compound 1 µM)
201T	0.311	0.349	0.373	0.295	0.338	1.16	1.16	1.09	1.29	1.16	1.01	1.01	0.99	1.18	1	1.07	0.972	1.03	0.995	0.997
A-427	1.06	1.01	0.998	0.903	0.982	0.907	1.05	1		1.12	0.979	0.806	1.08		0.918	0.691	0.821	1.16	0.631	0.226
ABC-1						0.297	0.302	0.262	0.345	0.296	0.423	0.67	0.156	0.863	0.555	0.656	0.823	0.75	0.519	0.265
Calu-6						1.05	1.03	1.02	1.11	1.03										
EBC-1						0.549	0.563	0.473	0.684	0.549										
HCC-78	0.918	0.894	0.999	0.869	0.953	0.334	0.49	0.432	0.642	0.457										
HCC-366	0.192	0.147	0.21	0.169	0.178	1.02	1	1.09	1.14	1.01										
IA-LM						0.842	0.757	0.795	0.92	0.656										
LK-2	0.29	0.255	0.272	0.287	0.242						0.219	0.202	0.177	0.158	0.169	0.172	0.227	0.196	0.236	0.191
NCI-H358	0.168	0.172	0.159	0.162	0.158						0.276	0.424	0.516	0.38	0.208	0.28	0.21	0.231	0.166	0.126
NCI-H522	1.02	0.772	0.855	1.08	1.13						0.929	1.07	1	1.12	1.09	0.984	1.26	1.27		0.957
NCI-H727						0.853	0.818	0.775	0.705	0.87	0.363	0.312	0.342	0.306	0.225	0.332	0.345	0.6	0.383	0.263
NCI-H1299						1.03	1.09	1.04	1.06	1.05										
NCI-H1395	0.925	0.842	0.822	0.887	0.912						0.621	0.605	0.641	0.79	0.679	0.633	0.726	0.7	0.658	0.509
NCI-H1623											0.555	0.505	0.52	0.571	0.464	0.608	0.48	0.63		0.33
NCI-H1648	0.69	0.855	0.558	0.584	0.777															
NCI-H1703						0.305	0.208	0.226	0.365	0.218										
NCI-H1793	1.33	0.736	0.927	0.923	0.632						0.157	0.174	0.144	0.23	0.161	0.212	0.147	0.184		0.222
NCI-H1944	0.687	0.549	0.551	0.721	0.577						0.626	0.777	0.718	0.769	0.655	0.858	0.71	0.726	0.529	0.332
NCI-H2170	0.254	0.28	0.243	0.28	0.273						0.649	0.754	0.64	0.825	0.638	0.791	0.658	0.688	0.254	0.381
NCI-H2342	0.868	0.761	0.841	0.823	0.924						0.67	0.749	0.701	0.852	0.725	0.713	0.68	0.685	0.577	0.519
SK-MES-1	1.04	0.886	0.991	0.824	0.918						0.725	0.563	0.694	0.836	0.601	0.726	0.414	0.33	0.228	0.191
SW 900	0.544	0.456	0.472	0.441	0.527						0.169	0.185	0.162	0.155	0.165	0.204	0.182	0.169	0.154	0.145
